Test results: ChEMBL document CHEMBL3045380, “Effects of a prenyl-baicalein derivative on ER (+) MCF-7 and ER () MDA-MB-231 breast tumor cell lines” (2012)
Active and inactive are the calls of the source.

Columns and labels:
[1] = tested on: MDA-MB-231; test: Cytotoxicity against Homo sapiens (human) ER-deficient MDA-MB-231 cells grown in steroid free RPMI medium at 3.13 to 100 uM after 72 hr by SRB assay; format: functional, cell-based
[2] = tested on: MCF-7; test: Inhibition of estrogen receptor in Homo sapiens (human) MCF-7 cells grown in RPMI medium assessed as cell death at 3.13 to 100 uM aftestrogen receptor 48 hr by SRB assay; format: cell-based
[3] = tested on: MCF7; test: Inhibition of ER in Homo sapiens (human) MCF-7 cells grown in steroid free RPMI medium assessed as cell death at 3.13 to 100 uM after 72 hr by SRB assay; format: functional, cell-based
[4] = tested on: MDA-MB-231; test: Cytotoxicity against Homo sapiens (human) ER-deficient MDA-MB-231 cells after 48 hr by SRB assay; format: functional
[5] = tested on: MCF-7; test: Antagonist activity at estrogen receptor in Homo sapiens (human) MCF-7 cells assessed as potentiation of 4-hydroxytamoxifen-induced reduction in [3H]thymidine incorporation aftestrogen receptor 72 hr by liquid scintillation counting; format: cell-based
[6] = tested on: MCF-7; test: Antagonist activity at estrogen receptor in Homo sapiens (human) MCF-7 cells grown in stestrogen receptoroid free RPMI medium assessed as inhibition of [3H]thymidine incorporation at 3.13 to 100 uM aftestrogen receptor 72 hr by liquid scintillation counting; format: cell-based
[7] = tested on: MCF7; test: Cytotoxicity against Homo sapiens (human) MCF-7 cells expressing ER after 48 hr by SRB assay; format: functional
[8] = tested on: MDA-MB-231; test: Antiproliferative activity against Homo sapiens (human) ER-deficient MDA-MB-231 cells grown in steroid free RPMI medium assessed as inhibition of [3H]thymidine incorporation at 3.13 to 100 uM after 72 hr by liquid scintillation counting; format: functional, cell-based
[9] = tested on: MDA-MB-231; test: Cytotoxicity against Homo sapiens (human) ER-deficient MDA-MB-231 cells grown in RPMI medium at 3.13 to 100 uM after 48 hr by SRB assay; format: functional, cell-based
[10] = tested on: MCF-7; test: Agonist activity at estrogen receptor in Homo sapiens (human) MCF-7 cells grown in stestrogen receptoroid free RPMI medium assessed as incorporation of [3H]thymidine at 0.1 to 0.2 uM aftestrogen receptor 72 hr by liquid scintillation counting; format: cell-based
[11] = tested on: MCF-7; test: Antagonist activity at estrogen receptor in Homo sapiens (human) MCF-7 cells assessed as potentiation of fluvestrant-induced reduction in [3H]thymidine incorporation at 3.13 to 6.25 uM aftestrogen receptor 72 hr by liquid scintillation counting; format: cell-based
[12] = tested on: MCF-7; test: Antagonist activity at estrogen receptor in Homo sapiens (human) MCF-7 cells assessed as inhibition of 17betaestradiol-induced [3H]thymidine incorporation at 0.1 to 0.78 uM aftestrogen receptor 72 hr by liquid scintillation counting; format: cell-based

CC(C)=CCOc1cc2oc(-c3ccccc3)cc(=O)c2c(O)c1O
11.2 µM: GI50 ([7]; MCF7, 48 h)
29.7 µM: GI50 ([4]; MDA-MB-231, 48 h)
inactive: inhibition [2]
active: Activity [1] | inhibition [3] | Activity [4] Dose-dependent effect | Activity [5] Dose-dependent effect | inhibition [6] | Activity [7] Dose-dependent effect | Activity [8] | Activity [9] | Activity [10] | Activity [11] | inhibition [12]
